Laboratory results taken from patent US20200131227A1, “POLYPEPTIDE WITH TUMOUR BINDING ACTIVITY” (RUPRECHT-KARLS-UNIVERSITÄT HEIDELBERG, priority 2017, published 2020).
Where a SMILES comes first, the peptide text is derived from it. Bridges are numbered along the chain shown (N, C = ends). The star is where a group is joined. DOTA = O=C(O)CN1CCN(CC(=O)O)CCN(CC(=O)*)CCN(CC(=O)O)CC1

Columns and labels:
[1] = Serum stability assay (radio-HPLC); assay type: in vitro ADME, human
Experimental: Five MBq of the purified ^131I-radiolabeled peptide was incubated in 300 μL human serum at 37° C. After different time intervals (15 min to 24 hours) 20 μL serum was precipitated with 40 μL acetonitrile. The stability of the labeled peptide in the supernatant was monitored by radio-HPLC at selected time points using a chromolith performance RP18ec column (3 mm×100 mm) equipped with a gamma detector (Packard COBRA™ Auto-Gamma, GMI). Separation condition was a gradient of 0% to 60% aqueous acetonitrile supplemented with 0.1% TFA over 10 min with a flow rate of 2 mL/min.

HNO97 cells [2] = assay type: binding, human; conditions: 48 h
Experimental: (§1) For binding studies, 2.5×10^5 to 4×10^5 cells were seeded in 6-well plates and cultivated for 48 hours. Cells were incubated for 60 min with 1 mL serum-free medium containing the ^125I-labeled peptide (see above). For competition experiments, cells were simultaneously exposed to unlabeled (10^-4 M to 10^-10 M) and ^125I-labeled peptides. After three washing steps with PBS (pH 7.4) the cells were lysed with 0.5 mL of 0.3 M NaOH. Experiments concerning the internalization, kinetics and efflux were additionally performed with ^177Lu-DOTA-SFITGv6. To evaluate kinetics and efflux HNO97 cells were incubated for different time intervals (10 min to 480 min) and 60 min, respectively, with ^177Lu-DOTA-SFITGv6 and lysed as described. To continue with the efflux experiment radioactive medium was replaced by non-radioactive medium and cells were incubated again for 60 to 240 min before measuring radioactivity of the cell lysates and the medium. For internalization experiments the cells were exposed to ^177Lu-DOTA-SFITGv6 for different time intervals (10 to 240 min) at 37° C. and 4° C. After three washing steps with PBS the cells were incubated with 1 mL of glycine-HCl 50 mmol/L in PBS (pH 2.8) for 10 min at RT to remove the surface bound activity. Then, cells were washed with 3 mL of ice-cold PBS and lysed as described. Radioactivity was determined in a gamma counter and calculated as percentage of the applied dose per 1×10^6 cells. Experiments were performed three times, and three repetitions per independent experiment were acquired.

ITGαvβ3 = ITGαvβ3 (Homo sapiens, UniProt P05106+P06756); assay: Surface plasmon resonance assay (SPR), ITGαvβ3; assay type: binding
Sequence of ITGαvβ3 (P06756 31-992 limits assumed): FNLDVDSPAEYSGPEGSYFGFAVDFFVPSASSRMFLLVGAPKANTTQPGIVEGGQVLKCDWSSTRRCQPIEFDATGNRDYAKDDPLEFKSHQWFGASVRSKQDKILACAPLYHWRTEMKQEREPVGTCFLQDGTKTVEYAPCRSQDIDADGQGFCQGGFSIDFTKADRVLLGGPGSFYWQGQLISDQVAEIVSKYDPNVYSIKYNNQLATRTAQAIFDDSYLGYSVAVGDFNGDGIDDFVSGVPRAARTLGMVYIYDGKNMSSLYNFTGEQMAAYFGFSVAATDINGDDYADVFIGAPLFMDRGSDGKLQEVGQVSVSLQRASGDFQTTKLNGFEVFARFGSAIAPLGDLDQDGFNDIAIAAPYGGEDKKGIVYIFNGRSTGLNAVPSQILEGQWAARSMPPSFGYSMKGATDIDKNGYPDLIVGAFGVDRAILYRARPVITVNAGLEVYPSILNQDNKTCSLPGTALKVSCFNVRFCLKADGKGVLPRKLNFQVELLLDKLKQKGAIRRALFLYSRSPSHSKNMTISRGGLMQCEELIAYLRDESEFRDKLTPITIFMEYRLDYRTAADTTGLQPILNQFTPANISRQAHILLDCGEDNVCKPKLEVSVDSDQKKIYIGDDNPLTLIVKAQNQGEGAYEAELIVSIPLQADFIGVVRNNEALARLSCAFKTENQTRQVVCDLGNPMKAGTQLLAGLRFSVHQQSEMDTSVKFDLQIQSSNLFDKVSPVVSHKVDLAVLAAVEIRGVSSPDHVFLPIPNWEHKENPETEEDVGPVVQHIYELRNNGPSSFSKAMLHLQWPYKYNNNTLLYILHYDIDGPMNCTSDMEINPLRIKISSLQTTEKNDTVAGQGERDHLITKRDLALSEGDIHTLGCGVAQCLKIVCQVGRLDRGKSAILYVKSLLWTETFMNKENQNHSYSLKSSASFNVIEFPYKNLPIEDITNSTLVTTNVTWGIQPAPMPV
Sequence of ITGαvβ3 (P05106 27-718 limits assumed): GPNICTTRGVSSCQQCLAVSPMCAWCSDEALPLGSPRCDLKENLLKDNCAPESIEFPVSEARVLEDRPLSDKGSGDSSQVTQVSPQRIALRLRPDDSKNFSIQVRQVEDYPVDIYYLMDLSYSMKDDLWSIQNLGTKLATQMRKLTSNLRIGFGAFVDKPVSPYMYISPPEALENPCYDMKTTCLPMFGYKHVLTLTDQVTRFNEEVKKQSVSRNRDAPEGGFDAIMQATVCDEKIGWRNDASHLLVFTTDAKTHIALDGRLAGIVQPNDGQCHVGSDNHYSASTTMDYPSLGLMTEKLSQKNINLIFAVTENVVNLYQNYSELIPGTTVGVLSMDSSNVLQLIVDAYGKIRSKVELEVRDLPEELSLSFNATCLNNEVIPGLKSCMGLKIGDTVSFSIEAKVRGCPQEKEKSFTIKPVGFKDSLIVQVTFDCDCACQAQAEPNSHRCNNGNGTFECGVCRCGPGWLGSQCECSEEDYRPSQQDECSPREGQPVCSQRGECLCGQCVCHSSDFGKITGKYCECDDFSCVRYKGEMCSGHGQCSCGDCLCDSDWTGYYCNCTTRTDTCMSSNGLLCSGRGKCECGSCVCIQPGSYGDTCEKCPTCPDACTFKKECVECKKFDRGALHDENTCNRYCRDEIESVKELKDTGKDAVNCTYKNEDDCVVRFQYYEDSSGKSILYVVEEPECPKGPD
Experimental: (§2) Assessment of the binding affinity was performed on a BiaCore X100 (GE Healthcare). To avoid denaturation of the heterodimer during amide activation ITGαvβ6 and ITGαvβ3, respectively, were used as analytes and SFITGv6 was immobilized at its N-terminus on a C1 sensor Chip (BR-1005-35, GE Healthcare) using a manual amine coupling protocol. Briefly, after activation of the sensor chip surface with a solution of EDC 0.4 M/NHS 0.1 M for 5 min a 100 μM peptide dissolved in HBS-EP running buffer (0.1 M HEPES, 30 mM EDTA, 1.5 M NaCl, 0.5% surfactant P20, pH 7.2) was immobilized with a contact time of 30 sec until a loading level of 18 response units (RU) was obtained. […] The SPR-sensogram data were evaluated with the BiaCore evaluation software. The dissociation constant (KD) was determined by a 1:1 Langmuir model fit of the SPR-sensograms.
as §2, with “SFLAP3” for “peptide”, “to obtain” for “until”, “12” for “18”, “(RU).” for “(RU) was obtained.”, “SPR sensogram” for “SPR-sensogram”, “SPR sensograms.” for “SPR-sensograms.”

[3] = Biodistribution, Capan-2 xenografts; assay type: in vivo, mice; conditions: Balb/c nude, mouse, tumor (Capan-2 xenograft), iv, 1 MBq, total radioactivity; after 1 hour (highest)
Experimental: 6 to 8 week old Balb c/c nude mice (Charles River Lab.) were inoculated with 5*10^6 Capan-2 cells in 100 μl Opti-MEM medium. After 4 to 6 weeks the tumor has grown 10-15 mm in diameter. For small animal PET imaging 25 MBq of the ^68Ga-labeled peptide (2 nmol) was injected into the tail vein.
For biodistribution assays 1 MBq of ^177Lu-labeled peptide was injected into the tail vein of each mouse. After different time points each animal was sacrificed. Peripheral blood, spleen, liver, intestine, kidney, heart, lung, brain, muscle, and tumor were removed and weighted. Radioactivity was measured in a gamma counter and expressed as injected dose per gram (% ID/g).

HNO97 cells [4] = assay: In vitro binding, kinetics, internalization and efflux on HNO97 cells; assay type: cell-based, human
Experimental: as §1
For the assessment of the peptide binding capacity in vitro, 2.5-4×10^5 cells were seeded into 6-well plates and cultivated for 48 h. ^125I-labeled peptide resuspended in 1 mL serum-free medium was added and incubated for either 10 min or 60 min with or without different concentrations of unlabeled peptide (10^−4-10^−11 M). Afterwards, cell monolayers were washed three times with 1 mL phosphate-buffered saline (pH 7.4) to remove unbound peptide and the cells were harvested with 1.4 mL lysis buffer (0.3 M NaOH). To evaluate kinetic properties the cells were exposed to ^177Lu-DOTA-labeled peptides for 10, 30, 60, 120, and 240 min, respectively, and lysed as described. For the efflux experiments the cells were incubated with ^177Lu-DOTA-labeled peptides for 60 min. Thereafter, radioactive medium was replaced by non-radioactive medium and cell monolayers were incubated for additional 60, 120, and 240 min and afterwards lysed as described earlier. The internalization was assessed after exposure of the cells to ^177Lu-DOTA-labeled peptides for 10, 30, 60, 120, and 240 min at 37° C. Unspecifically bound peptide was removed from the surface by incubation with 1 M glycine-HCl solution (pH 2.2) for 10 min. The monolayer cell was rinsed with PBS and cells were lysed as described before. Radioactivity was determined in a y-counter and calculated as percentage of the applied dose per 1×10^6 cells. Experiments were performed three times, and three repetitions per independent experiment were acquired.

HNO223 cells = assay: In vitro binding on HNO223 cells; assay type: cell-based, human; conditions: Example 2, 10 min to 480 min (FIG. 16)
Experimental: For binding studies, 2.5×10^5 to 4×10^5 cells were seeded in 6-well plates and cultivated for 48 hours. Cells were incubated for 60 min with 1 mL serum-free medium containing the ^125I-labeled peptide (see above). For competition experiments, cells were simultaneously exposed to unlabeled (10^-4 M to 10^-10 M) and ^125I-labeled peptides. After three washing steps with PBS (pH 7.4) the cells were lysed with 0.5 mL of 0.3 M NaOH. Experiments concerning the internalization, kinetics and efflux were additionally performed with ^177Lu-DOTA-SFITGv6. […] To continue with the efflux experiment radioactive medium was replaced by non-radioactive medium and cells were incubated again for 60 to 240 min before measuring radioactivity of the cell lysates and the medium. […] Radioactivity was determined in a gamma counter and calculated as percentage of the applied dose per 1×10^6 cells. […]
For the assessment of the peptide binding capacity in vitro, 2.5-4×10^5 cells were seeded into 6-well plates and cultivated for 48 h. ^125I-labeled peptide resuspended in 1 mL serum-free medium was added and incubated for either 10 min or 60 min with or without different concentrations of unlabeled peptide (10^−4-10^−11 M). […] The internalization was assessed after exposure of the cells to ^177Lu-DOTA-labeled peptides for 10, 30, 60, 120, and 240 min at 37° C. […]

Structure (SMILES)	proteolytic stability in human serum [1]	IC50 (HNO97 cells [2]) [nM]	lower affinity for ITGαvβ3 than for ITGαvβ6 (ITGαvβ3; SPR)	Kd (ITGαvβ3; peptide immobilized, integrin as analyte, 1:1 Langmuir fit) [nM]	tissue uptake at 1 h [3] [%ID/g]	internalization (HNO97 cells [4]; % of the total bound peptide, Example 2, within 60 min) [%]	maximum binding capacity of ^177Lu-DOTA-labeled peptide (kinetics) (HNO97 cells [4]; Example 2, 10 min to 480 min (FIG. 16)) [%]	total bound ^177Lu-DOTA-labeled peptide (internalization experiment) (HNO97 cells [4]; Example 2, FIG. 17A, B) [%]	maximum binding capacity of ^177Lu-DOTA-labeled peptide (kinetics) (HNO223 cells) [%]
CSCC[C@@H]1NC(=O)[C@H](CC(C)C)NC(=O)[C@H](CC(=O)O)NC(=O)CNC(=O)[C@H](CCCNC(=N)N)NC(=O)[C@H](Cc2ccccc2)NC(=O)[C@H]([C@@H](C)O)NC(=O)[C@@H](NC(=O)[C@H](CCCNC(=N)N)NC(=O)CN)CSSC[C@@H](C(=O)N[C@@H](Cc2ccc(O)cc2)C(=O)N2CCC[C@H]2C(=O)N[C@@H](CC(=O)O)C(=O)O)NC(=O)[C@H](CC(C)C)NC(=O)[C@H](CCC(N)=O)NC1=O [SFITGv6, NH2-G-R-C1-T-F-R-G-D-L-M-Q-L-C1-Y-P-D-COOH] (H-GRCTFRGDLMQLCYPD-OH; disulfide 3-13)	outstanding stability in human serum over a period of 24 hours	16.1	ten-fold lower affinity	185 ± 0.8	–	–	–	–	–
CC(C)C[C@@H]1NC(=O)[C@H](CC(=O)O)NC(=O)CNC(=O)[C@H](CCCNC(=N)N)NC(=O)CNC(=O)[C@H]([C@@H](C)O)NC(=O)[C@@H](NC(=O)[C@H](CCCNC(=N)N)NC(=O)CNC(=O)CN2CCN(CC(=O)O)CCN(CC(=O)O)CCN(CC(=O)O)CC2)CSSC[C@@H](C(=O)N[C@@H](Cc2ccc(O)cc2)C(=O)N2CCC[C@H]2C(=O)N[C@@H](CC(=O)O)C(N)=O)NC(=O)[C@H](CC(C)C)NC(=O)[C@H](CCCNC(=N)N)NC(=O)CNC1=O [^177Lu-DOTA-SFLAP3, metal not drawn] ({DOTA}-GRCTGRGDLGRLCYPD-NH2; disulfide 3-13; N-terminus and C-terminus assumed)	–	–	–	–	4	60	18.5	11.14	9.66
